Measurements taken from patent publication US20070072920A1, “Phenylethylamine analogs and their use for treating glaucoma” (Alcon, Inc., priority 2005, published 2007).
Structures can show the parent of a compound that is named as a salt. Where two headings read alike, the source gives them in different places.

What was measured:
[1] = biological target: T1, 5-HT2 receptor in A7r5 rat vascular smooth muscle cells (Rattus norvegicus, UniProt P14842); assay: 5-HT2 Functional Assay: Calcium Mobilization (FLIPR); format: cell-based; details: for Emax: read-out: Efficacy (Emax %)
T1 construct: endogenous in cells; host or cells: A7r5 rat vascular smooth muscle cells
Method: 5-HT2 Functional Assay: Calcium Mobilization
The receptor-mediated mobilization of intracellular calcium ([Ca^2+]i) was studied using the Fluorescence Imaging Plate Reader (FLIPR) instrument. Rat vascular smooth muscle cells, A7r5, were grown in a normal media of DMEM/10% FBS and 10 μg/ml gentamycin. Confluent cell monolayers were trypsinized, pelleted, and re-suspended in normal media. Cells were seeded in a 50 μL volume at a density of 20,000 cells per well in a black wall, 96-well tissue culture plate and grown for 2 days. On the day of the experiment, one vial of FLIPR Calcium Assay Kit dye was re-suspended in 50 ml of a FLIPR buffer consisting of Hank's Balanced Salt Solution (HBSS), 20 mM HEPES, and 2.5 mM probenecid, pH 7.4. Cells were loaded with the calcium-sensitive dye by addition of an equal volume (50 μl) to each well of the 96-well plate and incubated with dye for 1 h at 23° C. Typically, test compounds were stored at […] in 50% DMSO/50% Ethanol solvent. Compounds were diluted 1:50 in 20% DMSO/20% Ethanol. For dose-response experiments, compounds were diluted 1:50 in FLIPR buffer and serially diluted 1:10 to give a 5- or 8-point dose-response curve.
At the beginning of an experimental run, a signal test was performed to check the basal fluorescence signal from the dye-loaded cells and the uniformity of the signal across the plate. The basal fluorescence was adjusted between 8000-12000 counts by modifying the exposure time, the camera F-stop, or the laser power. The instrument settings for a typical assay were as follows: laser power 0.3-0.6 W, camera F-stop F/2, and exposure time 0.4 sec. An aliquot (25 μl) of the test compound was added to the existing 100 μl dye-loaded cells at a dispensing speed of 50 μl/sec. Fluorescence data were collected in real-time at 1.0 sec intervals for the first 60 sec and at 6.0 sec intervals for an additional 120 sec. Responses were measured as peak fluorescence intensity minus basal and where appropriate were expressed as a percentage of a maximum 5-HT-induced response.

[2] = tested on: lasered (hypertensive) eyes of conscious cynomolgus monkeys; assay: Acute IOP Response in Lasered (Hypertensive) Eyes of Conscious Cynomolgus Monkeys; format: in vivo, cynomolgus monkey; details: 300 μg topical; for % IOP change 1 hr: 1 hr after dose; for % IOP change 3 hr: 3 hr after dose; for % IOP change 6 hr: 6 hr after dose
Method: Acute IOP Response in Lasered (Hypertensive) Eyes of Conscious Cynomolgus Monkeys
Intraocular pressure (IOP) can be determined with an Alcon Pneumatonometer after light corneal anesthesia with 0.1% proparacaine. Eyes are washed with saline after each measurement. After a baseline IOP measurement, test compound is instilled in one 30 μL aliquot to the right eyes only of nine cynomolgus monkeys. Vehicle is instilled in the right eyes of six additional animals. Subsequent IOP measurements are taken at 1, 3, and 6 hours.

5-HT2 receptors = 5-HT2 receptors (Rattus norvegicus, UniProt P14842); assay: 5-HT2 Receptor Binding Assay ([125I]DOI competition); parameters: species or system rat or human; details: inhibition of [125I]DOI binding, cerebral cortex homogenates
Method: 5-HT2 Receptor Binding Assay
The assay mixture is incubated for 1 hour at 23° C. in polypropylene tubes and the assays terminated by rapid vacuum filtration over Whatman GF/B glass fiber filters previously soaked in 0.3% polyethyleneimine using ice-cold buffer. Test compounds (at different concentrations) are substituted for methiothepin. Filter-bound radioactivity is determined by scintillation spectrometry on a beta counter.

[3] = percentage of maximum 5-HT-induced response, A7r5 cells

T1 sequence (P14842 whole entry): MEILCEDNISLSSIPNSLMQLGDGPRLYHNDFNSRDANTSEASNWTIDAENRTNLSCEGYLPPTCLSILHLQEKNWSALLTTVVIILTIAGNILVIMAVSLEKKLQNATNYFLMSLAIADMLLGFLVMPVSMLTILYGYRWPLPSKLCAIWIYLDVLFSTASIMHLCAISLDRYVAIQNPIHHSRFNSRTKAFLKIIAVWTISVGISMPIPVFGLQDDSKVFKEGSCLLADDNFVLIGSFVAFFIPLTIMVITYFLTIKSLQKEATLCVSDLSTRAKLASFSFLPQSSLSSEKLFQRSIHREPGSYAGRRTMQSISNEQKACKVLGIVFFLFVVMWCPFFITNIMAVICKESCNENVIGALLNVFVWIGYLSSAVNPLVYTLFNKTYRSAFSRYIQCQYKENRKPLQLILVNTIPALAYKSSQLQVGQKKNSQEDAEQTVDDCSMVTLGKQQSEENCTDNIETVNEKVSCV
5-HT2 receptors, sequence (P14842 whole entry): as above

| Molecule | EC50 [1] [nM] | Emax [1, 3] [%] | further results |
| --- | --- | --- | --- |
| COCCCc1cc(OC)c(C[C@@H](C)N)cc1OC [Example 6, (R)-2-[2,5-Dimethoxy-4-(3-methoxy-propyl)-phenyl]-1-methyl-ethylamine hydrochloride] | 22 | 45 | – |
| COc1cc(CC(C)N)c(OC)cc1CC[S+](C)[O-] (stereo not shown) [Example 16, 2-[4-(2-Methanesulfinyl-ethyl)-2,5-dimethoxy-phenyl]-1-methyl-ethylamine hydrochloride] | 870 | 40 | – |
| COc1cc(C[C@@H](C)N)c(OC)cc1CC1CCCS1 (stereo partly drawn) [Example 13, (R)-2-[2,5-Dimethoxy-4-(tetrahydro-thiophen-2-ylmethyl)-phenyl]-1-methyl-ethylamine hydrochloride] | 560 | 81 | – |
| COc1cc(CC(C)N)c(OC)cc1CSC (stereo not shown) [Example 14, 2-(2,5-Dimethoxy-4-methylsulfanylmethyl-phenyl)-1-methyl-ethylamine; hydrochloride] | 68 | 52 | – |
| COc1cc(C[C@@H](C)N)c(OC)cc1Cc1ccccc1 [Example 17, (R)-2-(4-Benzyl-2,5-dimethoxy-phenyl)-1-methyl-ethylamine hydrochloride] | 310 | 43 | – |
| COc1cc(C)c(OS(C)(=O)=O)cc1CC(C)N (stereo not shown) [Example 8, Methanesulfonic acid 5-(2-amino-propyl)-4-methoxy-2-methyl-phenyl ester hydrochloride] | 890 | 30 | – |
| COc1cc(CC(C)N)c(OC)cc1CCSC.Cl (stereo not shown) [Example 4, 2-[2,5-Dimethoxy-4-(2-methylsulfanyl-ethyl)-phenyl]-1-methyl-ethylamine hydrochloride] | 94 | 51 | % IOP change 1 hr [2]: −3.5%; % IOP change 3 hr [2]: −14.8%; % IOP change 6 hr [2]: −16.1% |
| COc1cc(C[C@@H](C)N)c(OC)cc1CC1CCCO1 (stereo partly drawn) [Example 12, (R)-2-[2,5-Dimethoxy-4-(tetrahydro-furan-2-ylmethyl)-phenyl]-1-methyl-ethylamine hydrochloride] | 82 | 73 | – |
| COc1ccc(Cc2cc(OC)c(C[C@@H](C)N)cc2OC)cc1 [Example 18, (R)-2-[2,5-Dimethoxy-4-(4-methoxy-benzyl)-phenyl]-1-methyl-ethylamine hydrochloride] | 220 | 23 | – |
| COc1cc(C[S+](C)[O-])c(OC)cc1CC(C)N (stereo not shown) [Example 15, 2-(4-Methanesulfinylmethyl-2,5-dimethoxy-phenyl)-1-methyl-ethylamine trifluoroacetate] | 7600 | 37 | – |
| (R)-2-(4-Furan-2-ylmethyl-2,5-dimethoxy-phenyl)-1-methyl-ethylamine hydrochloride [Example 11] | – | – | IC50 (5-HT2 receptors): 0.36 nM; EC50 ([1]; intracellular calcium mobilization, A7r5 cells, FLIPR, read-out: EC50): 120 nM; Efficacy (Emax %) [1, 3]: 55% |
| COCCc1cc(OC)c(C[C@@H](C)N)cc1OC.Cl [Example 3, (R)-2-[2,5-Dimethoxy-4-(2-methoxy-ethyl)-phenyl]-1-methyl-ethylamine hydrochloride] | 78 | 53 | % IOP change 1 hr [2]: −5.2%; % IOP change 3 hr [2]: −16.3%; % IOP change 6 hr [2]: −21.5% |
| COc1cc(C[C@@H](C)N)c(OC)cc1CC1=NCCS1 [Example 10, (R)-2-[4-(4,5-Dihydro-thiazol-2-ylmethyl)-2,5-dimethoxy-phenyl]-1-methyl-ethylamine hydrochloride] | 600 | 52 | – |
| COc1cc(C[C@@H](C)N)c(OC)cc1CCCSC [Example 5, (R)-2-[2,5-Dimethoxy-4-(3-methylsulfanyl-propyl)-phenyl]-1-methyl-ethylamine hydrochloride] | 37 | 21 | – |
| COCSCCc1cc(OC)c(C[C@@H](C)N)cc1OC [Example 7, (R)-2-[2,5-Dimethoxy-4-(2-methoxymethylsulfanyl-ethyl)-phenyl]-1-methyl-ethylamine hydrochloride] | 91 | 32 | – |
| COc1cc(C[C@@H](C)N)c(OC)cc1Cc1ccc(Cl)cc1 [Example 21, (R)-2-[4-(4-Chloro-benzyl)-2,5-dimethoxy-phenyl]-1-methyl-ethylamine hydrochloride] | 963 | 39 | – |
| COc1ccccc1Cc1cc(OC)c(C[C@@H](C)N)cc1OC [Example 19, (R)-2-[2,5-Dimethoxy-4-(2-methoxy-benzyl)-phenyl]-1-methyl-ethylamine hydrochloride] | 660 | 22 | – |
| COc1cc(C)c(OC(C)=O)cc1CC(C)N (stereo not shown) [Example 9, Acetic acid 5-(2-Amino-propyl)-4-methoxy-2-methyl-phenyl ester hydrochloride] | 4900 | 37 | – |
| COc1cc(C[C@@H](C)N)c(OC)cc1Cc1nc(C)no1 [Example 2, (R)-2-[2,5-Dimethoxy-4-(3-methyl-[1,2,4]oxadiazol-5-ylmethyl)-phenyl]-1-methyl-ethylamine hydrochloride] | 1060 | 23 | – |
| CCOC(=O)Cc1cc(OC)c(C[C@@H](C)N)cc1OC [Example 1, [(R)-4-(2-Amino-propyl)-2,5-dimethoxy-phenyl]-acetic acid ethyl ester hydrochloride] | 1100 | 24 | – |
| COc1cccc(Cc2cc(OC)c(C[C@@H](C)N)cc2OC)c1 [Example 20, (R)-2-[2,5-Dimethoxy-4-(3-methoxy-benzyl)-phenyl]-1-methyl-ethylamine hydrochloride] | 257 | 53 | – |
